Results: patent CN112843052A, “新型表观遗传因子抑制剂2800z在制备抗肝癌药物增敏剂中的应用” (Hunan Normal University, priority 2021, dated 2021)

Assays:
[1] = tested on: HEPG2 cells [HEPG2细胞]; experiment: In vitro cytotoxicity experiment (体外细胞毒性实验); type: cell-based; details: sorafenib 4 uM, 2800Z 60 uM, each alone or combined, 12, 24, 36 h
[2] = tested on: mouse liver cancer (subcutaneous HEPG2 cells in nude mice) [小鼠肝癌]; experiment: In vivo anti-liver-cancer experiment (体内抗肝癌实验), subcutaneous HEPG2 tumours in nude mice; details: 14 days, i.p. three times per week for two weeks
[3] = tested on: HEPG2 cells [HEPG2细胞]; details: known IC50 value of the chemotherapeutic drug; cell line not printed in the clause; cited from earlier work
[4] = sorafenib 1 mg/kg, 2800Z 4 mg/kg, each alone or combined

CNC(=O)c1cc(Oc2ccc(NC(=O)Nc3ccc(Cl)c(C(F)(F)F)c3)cc2)ccn1 [索拉菲尼, Sorafenib]
cytotoxicity (in words) [1]: 细胞毒性较差 | liver cancer volume compared with the untreated group (in words) ([2]; sorafenib 1 mg/kg or 2800Z 4 mg/kg): 与未给药组的结果相近 | inhibition of mouse liver cancer (in words) [2, 4]: 抑制作用较弱 | liver cancer (tumour) volume [2, 4]: ~1000 mm3 | IC50 [3]: 10 µM
